Measurements: patent US20250243220A1, “ATR INHIBITORS” (APREA THERAPEUTICS, INC., priority 2022, published 2025)

Legend:
Format in all cases: cell-based
MEC (+APH) = experiment: MEC (+APH)
HCT116 Bcl/xl = experiment: IC50 assay by Western blot (APH-treated cells), HCT116 Bcl/xl; settings: for IC50: Homo sapiens, HCT-116
Method: (§1) E. Treatment of Cells for IC50 Assay by Western Blot
(§2) The compound is stored as a 1 mM stock solution prepared in accordance with the Receipt of Compound SOP. The stock solution is diluted in cell media in two separate 1:10 dilution series.
(§3) 1. Arrange twelve 15-mL centrifuge tubes in a rack in two series and label them in accordance with Dilutions Series 1 and Dilution Series 2 shown in Table 1 and Table 2, respectively.
(§4) 2. Place 2.5 mL of prewarmed cell media in each of the […]. Place 2.25 mL of prewarmed cell media in the remaining tubes.
(§5) 3. Add 7.5 μL of 1 mM compound stock solution in the 3 μM tube. Mix well.
(§6) 4. Add 2.5 μL of 1 mM compound stock solution in the 1 μM tube. Mix well.
(§7) 5. For each series (separately), remove 250 μL from the leftmost tube and transfer to the next tube to the right. Repeat for each tube until the series is complete.
(§8) 6. Set aside the 1 μM tube, the 3 μM tube, and the 300 nM tube for discard.
(§9) 7. The cells to be treated will be in 6-well plates labeled by cell line. Remove the cells from the incubator and label the wells with the dosages to be administered.
(§10) 8. Arrange the dilution tubes in the rack in a manner that reflects the 6-well plate arrangement so as to avoid confusion when administering the dosage solutions to the appropriate wells.
(§11) 9. Aspirate the three wells in the top row of the first plate (labeled NT, APH+, and APH+) and replace with 2 mL fresh media (without drug compound).
(§12) 10. Aspirate the three wells in the bottom row of the first plate and replace each well with 2 mL of solution from the appropriate tube.
(§13) 11. Repeat step 10 for the next row of wells (top row second plate). and then for the final row of wells (bottom row second plate).
(§14) 12. Place both plates into the incubator for 30 minutes.
(§15) 13. After 30 minutes have elapsed, remove the plates from the incubator.
(§16) 14. Acquire stock solution of APH (5 mM) and add 2 μL of the APH stock solution to the center of each well except the well labeled NT.
(§17) 15. Swirl the plates carefully and gently to diffuse the APH throughout each well.
(§18) 16. Place the plates back in the incubator for 4 hours, at which point the cells will be harvested for analysis.
(§19) 17. Twenty minutes before harvesting (or 3 hours and 40 minutes after administration of APH), turn on a heat block suitable to heat Eppendorf tubes. Set the temperature to 95° C.
(§20) 18. Set up a number of Eppendorf tubes equal to the number of wells treated (i.e., twelve per two-plate drug administration), and label each tube with cell line, compound administered, dosage level, and date. Leave the tubes open.
(§21) 19. Add 200 mL DI water to a beaker.
(§22) 20. After 4 hours, remove treated plates from incubator.
(§23) 21. Aspirate media from all wells.
(§24) 22. Wash each well with 2 mL 1×PBS and aspirate.
(§25) 23. Sterilize vacuum line with 70% ethanol by spraying some into the nozzle while the vacuum is engaged. Shut off vacuum.
(§26) 24. Add Laemmli buffer to each well. For HCT116 Bcl/xl, OVCAR-3, and 22RV1 cells, add 300 μL per well; for OVCAR-8 and SKOV-3 cells, add 250 μL per well.
(§27) 25. Scrape the first well thoroughly. Place the scraper into the DI water between uses.
(§28) 26. Transfer the lysed cell debris mixture to the first tube carefully. The mixture will be viscous. Use a 1000-μL pipettor. Close the tube.
(§29) 27. Repeat steps 25 and 26 for each well.
(§30) 28. When all wells have been harvested, place all the tubes into the heat block. Place a weighted, heat-resistant object on top of the tubes to keep them closed.
(§31) 29. After 5 minutes, remove the tubes from the heat block and turn it off. Vortex each tube for 10 seconds. Be cautious of tubes popping open.
(§32) 30. Allow the tubes to come to room temperature and proceed to further analysis or store frozen at −20° C.

OVCAR-3 = experiment: IC50 assay by Western blot (APH-treated cells), OVCAR-3; settings: OVCAR-3 cells; for IC50: Homo sapiens
Method: as §1, §2, §3, §4, §5, §6, §7, §8, §9, §10, §11, §12, §13, §14, §15, §16, §17, §18, §19, §20, §21, §22, §23, §24, §25, §26, §27, §28, §29, §30, §31, §32

OVCAR-8 = experiment: IC50 assay by Western blot (APH-treated cells), OVCAR-8; settings: OVCAR-8 cells; for IC50: Homo sapiens
Method: as §1, §2, §3, §4, §5, §6, §7, §8, §9, §10, §11, §12, §13, §14, §15, §16, §17, §18, §19, §20, §21, §22, §23, §24, §25, §26, §27, §28, §29, §30, §31, §32

SKOV-3 = experiment: IC50 assay by Western blot (APH-treated cells), SKOV-3; settings: SKOV-3 cells; for IC50: Homo sapiens, SK-OV-3
Method: as §1, §2, §3, §4, §5, §6, §7, §8, §9, §10, §11, §12, §13, §14, §15, §16, §17, §18, §19, §20, §21, §22, §23, §24, §25, §26, §27, §28, §29, §30, §31, §32

22RV1 = experiment: IC50 assay by Western blot (APH-treated cells), 22RV1; settings: 22RV1 cells; for IC50: Homo sapiens
Method: as §1, §2, §3, §4, §5, §6, §7, §8, §9, §10, §11, §12, §13, §14, §15, §16, §17, §18, §19, §20, §21, §22, §23, §24, §25, §26, §27, §28, §29, §30, §31, §32

[1] = test system: HCT Bcl/xl, OVCAR-3, OVCAR-8, SKOV-3, 22RV1 cell lines; experiment: Ave. IC50 across cell lines; settings: average across cell lines

SMILES	minimal effective concentration (MEC (+APH)) [µM]	IC50 (HCT116 Bcl/xl) [nM]	PALD (Percent Activity at Lowest Dose tested) HCT Bcl/xl (HCT116 Bcl/xl)	IC50 (OVCAR-3) [nM]	PALD (Percent Activity at Lowest Dose tested) OVCAR-3 (OVCAR-3)	IC50 (OVCAR-8) [nM]	PALD (Percent Activity at Lowest Dose tested) OVCAR-8 (OVCAR-8)	IC50 (SKOV-3) [nM]	PALD (Percent Activity at Lowest Dose tested) SKOV-3 (SKOV-3)	PALD (Percent Activity at Lowest Dose tested) 22RV1 (22RV1)	IC50 (22RV1) [nM]	IC50 [1] [nM]
CNCc1cccc2c1OCCCCCCC(C)(O)CC1(CC1)S(=O)(=O)c1ccc(cc1)-c1cnc(N)c(n1)C(=O)N2 (racemic) [Compound B, 5-amino-22-hydroxy-22-methyl-13-(methylaminomethyl)-25,25-dioxo-spiro[15-oxa-25λ^6-thia-4,8,31-triazatetracyclo[24.2.2.1^2,6.0^9,14]hentriaconta-1(28),2,4,6(31),9(14),10,12,26,29-nonaene-24,1′-cyclopropane]-7-one]	4e-05	4.63	(115%)	2.15	(121%)	4.47	(94%)	2.62	(106%)	(141%)	2.99	3.37
CC1(C)C[C@](C)(O)CCCCCCOc2c(CN)cccc2NC(=O)c2nc(cnc2N)-c2ccc(cc2)S1(=O)=O (single isomer, unassigned) [Compound C-2]	1e-05	5.41	(71%)	11.5	(95%)	2.47	(100%)	3.2	(95%)	(92%)	2.03	4.92
C[C@@H]1COCCN1c1cc(C2([S@](C)(=N)=O)CC2)nc(-c2cc[nH]c3nccc2-3)n1 [AZD 6738, reference compound]	0.0003	57.1		91.8	(190%)	86.6	(116%)	107	(105%)	(165%)	275	123
CNCc1cccc2c1OCCCCCC[C@](C)(O)CC1(CC1)S(=O)(=O)c1ccc(cc1)-c1cnc(N)c(n1)C(=O)N2 (single isomer, unassigned) [Compound B-1]	4e-05	4.61	(93%)	7.43	(105%)	7.06	(132%)	1.57	(106%)	(98%)	4.95	5.12
CNCc1cccc2c1OCCCCCCC(C)(O)CC(C)(C)S(=O)(=O)c1ccc(cc1)-c1cnc(N)c(n1)C(=O)N2 (racemic) [Compound A, 5-amino-22-hydroxy-22,24,24-trimethyl-13-(methylaminomethyl)-25,25-dioxo-15-oxa-25λ^6-thia-4,8,31-triazatetracyclo[24.2.2.1^2,6.0^9,14]hentriaconta-1(28),2(31),3,5,9(14),10,12,26,29-nonaen-7-one]	2e-05	3.49	(74%)	2.19	(111%)	1.68	(71%)	2.39	(88%)	(73%)	8.28	3.61
CNCc1cccc2c1OCCCCCC[C@@](C)(O)CC1(CC1)S(=O)(=O)c1ccc(cc1)-c1cnc(N)c(n1)C(=O)N2 (single isomer, unassigned) [Compound B-2]	2e-05	3	(81%)	3.12	(94%)	2.62	(115%)	0.97	(115%)	(101%)	1.89	2.32
